ChEMBL document CHEMBL1201862, “PubChem BioAssay data set” (2004)
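1) Cells in 96-well plates. 2) Compound, 48 h, 5 concentrations. 3) Linear interpolation between surrounding doses. 4) Unreached endpoint = highest concentration. Abbreviation: GI50, concentration required for 50% inhibition of growth.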 Activity calls are given as the source filed them. Cut-off read from the data, not from the text of the source: active = GI50 up to about 1.1 µM and inactive = higher.

Columns and labels:
Assay in all cases: growth of human tumour cells (NCI), 48 h
CCRF-CEM = tested on: CCRF-CEM
COLO 205 = tested on: COLO 205
HL-60 = tested on: HL-60
HOP-62 = tested on: HOP-62
HOP-92 = tested on: HOP-92
K562 = tested on: K562
KM12 = tested on: KM12
LOX IMVI = tested on: LOX IMVI
MCF7 = tested on: MCF7
MDA-MB-435 = tested on: MDA-MB-435
MDA-N = tested on: MDA-N
Malme-3M = tested on: Malme-3M
NCI-H23 = tested on: NCI-H23
RPMI-8226 = tested on: RPMI-8226
SF-268 = tested on: SF-268
SK-MEL-5 = tested on: SK-MEL-5
SK-OV-3 = tested on: SK-OV-3
SNB-75 = tested on: SNB-75
UACC-257 = tested on: UACC-257
UACC-62 = tested on: UACC-62

Measured: GI50

CC(C)OP(=O)(CCCCCCCCC/C=C/c1ccc2c(c1)OCCOCCOCCOCCO2)OC(C)C
inactive: CCRF-CEM 2.71 µM | COLO 205 1.99 µM | HL-60 7.67 µM | HOP-62 2.42 µM | HOP-92 2.2 µM | K562 6.37 µM | KM12 2.8 µM | LOX IMVI 2.16 µM | MCF7 3.23 µM | MDA-MB-435 3.87 µM | MDA-N 3.4 µM | Malme-3M 3.73 µM | NCI-H23 2.85 µM | RPMI-8226 1.41 µM | SF-268 3.8 µM | SK-MEL-5 2.74 µM | SK-OV-3 3.19 µM | SNB-75 3.01 µM | UACC-257 2.88 µM | UACC-62 3.79 µM

CC1CN1C(=O)NCCCCCCNC(=O)N1CC1C (stereo not given)
inactive: CCRF-CEM 14.7 µM | COLO 205 > 100 µM | HL-60 11.9 µM | HOP-62 30.2 µM | HOP-92 > 93.5 µM | K562 > 97.5 µM | KM12 > 100 µM | LOX IMVI 34.3 µM | MCF7 70.3 µM | MDA-MB-435 > 100 µM | MDA-N > 100 µM | Malme-3M > 100 µM | NCI-H23 27.3 µM | RPMI-8226 > 100 µM | SF-268 29.8 µM | SK-MEL-5 > 100 µM | SK-OV-3 66.5 µM | SNB-75 62.7 µM | UACC-257 > 100 µM | UACC-62 31.8 µM

c1ccc2c3c([nH]c2c1)C1c2[nH]c4ccccc4c2CCN1CC3
inactive: CCRF-CEM 13.5 µM | COLO 205 3.79 µM | HL-60 16.8 µM | HOP-62 13.6 µM | HOP-92 2.03 µM | K562 5.78 µM | KM12 12.5 µM | LOX IMVI 11.6 µM | MCF7 10.1 µM | MDA-MB-435 15.2 µM | MDA-N 18.1 µM | Malme-3M 15.1 µM | NCI-H23 12.3 µM | RPMI-8226 11.9 µM | SF-268 14.4 µM | SK-MEL-5 13.6 µM | SK-OV-3 14.1 µM | SNB-75 16.7 µM | UACC-257 14.5 µM | UACC-62 16.7 µM

COc1ccc(/C(CC2OC(=O)c3ccccc32)=N\NC(=O)C[N+](C)(C)C)cc1 (stereo not given)
inactive: CCRF-CEM 25.1 µM | COLO 205 27.5 µM | HL-60 33.4 µM | HOP-62 19.2 µM | HOP-92 23.1 µM | K562 19.2 µM | KM12 21.2 µM | LOX IMVI 24.1 µM | MCF7 42 µM | MDA-MB-435 24.3 µM | MDA-N 38.2 µM | Malme-3M 31.1 µM | NCI-H23 17.5 µM | RPMI-8226 15.2 µM | SF-268 30.5 µM | SK-MEL-5 22.5 µM | SK-OV-3 38.8 µM | SNB-75 27.7 µM | UACC-257 31.3 µM | UACC-62 15.4 µM

CCCCCCCCCCCCCCCCCCOCC(COP(=O)([O-])OCC[N+](C)(C)C)OC (stereo not given) [EDELFOSINE]
inactive: CCRF-CEM 7.62 µM | COLO 205 2.65 µM | HL-60 3.94 µM | HOP-62 19.2 µM | HOP-92 8.75 µM | K562 44.3 µM | KM12 5.09 µM | LOX IMVI 15.4 µM | MCF7 27.5 µM | MDA-MB-435 98.4 µM | MDA-N > 69.3 µM | Malme-3M 29.6 µM | NCI-H23 41.6 µM | RPMI-8226 20.9 µM | SF-268 17.2 µM | SK-MEL-5 41.8 µM | SK-OV-3 18.2 µM | SNB-75 8.75 µM | UACC-257 24 µM | UACC-62 20.5 µM

COc1ccc2c(c1)CC[C@@H]1[C@@H]2CC[C@]2(C)/C(=N/OCCN3CCCCC3)CC[C@@H]12
inactive: CCRF-CEM 3.28 µM | COLO 205 1.55 µM | HL-60 2.79 µM | HOP-62 6.25 µM | HOP-92 3.44 µM | K562 2.79 µM | KM12 3.61 µM | LOX IMVI 1.66 µM | MCF7 6.95 µM | MDA-MB-435 4.56 µM | MDA-N 2.33 µM | Malme-3M 2.25 µM | NCI-H23 11.4 µM | RPMI-8226 2.62 µM | SF-268 9.2 µM | SK-MEL-5 2.65 µM | SK-OV-3 10.3 µM | SNB-75 5.69 µM | UACC-257 2.55 µM | UACC-62 2.06 µM

Cc1ccc(/C=C2\CN(C)CC3C2=NC(=S)NC3c2ccc(C)cc2)cc1 (stereo not given)
inactive: CCRF-CEM 13.8 µM | COLO 205 22.7 µM | HL-60 31.3 µM | HOP-62 > 100 µM | HOP-92 1.69 µM | K562 38.7 µM | KM12 32.1 µM | LOX IMVI 34.7 µM | MCF7 40.6 µM | MDA-MB-435 16.7 µM | MDA-N 22 µM | Malme-3M 92.7 µM | NCI-H23 > 74 µM | RPMI-8226 46.5 µM | SF-268 > 74.3 µM | SK-MEL-5 38.5 µM | SK-OV-3 > 100 µM | SNB-75 60.8 µM | UACC-257 62.4 µM | UACC-62 > 100 µM

C[C@@H]1CCC([C@@H](C)[C@H]2CC[C@H]3[C@@H]4CC[C@H]5C[C@@H](O)CC[C@]5(C)[C@H]4CC[C@]23C)=NC1
inactive: CCRF-CEM > 41.1 µM | COLO 205 8.15 µM | HL-60 1.36 µM | HOP-62 13.4 µM | HOP-92 > 41.9 µM | K562 3.68 µM | KM12 5.06 µM | LOX IMVI 3.15 µM | MCF7 9.04 µM | MDA-MB-435 20.7 µM | MDA-N 9.53 µM | Malme-3M 18.1 µM | NCI-H23 17.7 µM | RPMI-8226 2.77 µM | SF-268 12.6 µM | SK-MEL-5 7.64 µM | SK-OV-3 30.9 µM | SNB-75 19.1 µM | UACC-257 25.3 µM | UACC-62 15.9 µM
